According to patent US8383581B2, “Short-chain peptides as parathyroid hormone (PTH) receptor agonist” (Cadila Healthcare Limited, priority 2009, dated 2013):
Where a SMILES comes first, the peptide text is derived from it. [ ]: non-standard residue; d: D form. ξ: configuration not given here. ξαMeBip(2'-Et,4'-OMe) = CCc1cc(OC)ccc1-c1ccc(CC(C)(N)C(=O)O)cc1; ξBip(2'-Et-4'-OMe) = CCc1cc(OC)ccc1-c1ccc(CC(N)C(=O)O)cc1; ξαMePhe(2,6-F2) = CC(N)(Cc1c(F)cccc1F)C(=O)O; ξαMe(hhPhe) = CC(N)(CCCc1ccccc1)C(=O)O; ξαMePhe(2-F) = CC(N)(Cc1ccccc1F)C(=O)O; hArg = N=C(N)NCCCC[C@H](N)C(=O)O; Cit = NC(=O)NCCC[C@H](N)C(=O)O; ξhhPhe = NC(CCCc1ccccc1)C(=O)O; NMeV = CN[C@H](C(=O)O)C(C)C; ξαMeNle = CCCCC(C)(N)C(=O)O; Nle = CCCC[C@H](N)C(=O)O; Orn = NCCC[C@H](N)C(=O)O; Ac5c = NC1(C(=O)O)CCCC1; Aib = CC(C)(N)C(=O)O

System: ovariectomised (OVX) rats
Assay: In vivo anti-osteoporosis activity testing in OVX rat model (serum calcium, phosphate, bone parameters)
Set-up: species or system Female Wistar Rats
Conditions: po
From the text: c) In Vivo Anti-Osteoporosis Activity Testing in OVX Rat Model: The ovariectomised (OVX) rats were used to study anti-osteoporosis activity of test compounds (short-chain peptides) in vivo. The OVX rats develop osteopenia due to ovarian hormone deficiency. Osteopenia can be detected as early as 14 days post OVX, increase for the next 100 days and then stabilised (Wronski T. J., et al., Calcif. Tissue Int., 43(3), 1988, 179-183). Detailed Study Protocol to Evaluate the Effects of Anabolic Therapy on Bone Markers and Histomorphometry in OVX Animals: 10 to 11 weeks old Female Wistar Rats (150-200 g) were used. The animals were kept in individually ventilated cages in a room with controlled temperature (23°±3° C.), lighting (12:12 h light-dark cycle) and relative humidity (55±10%). Animals had free access to standard rat chow and water. Protocol for use of animals for conducting this study has been reviewed and approved by Institutional Animal Ethics Committee (IAEC). The animals were marked with picric acid for identification and acclimatized to experimental room conditions for 2 days prior to initiation of the study. For the induction of osteoporosis, rats were bilaterally ovariectomised under anesthesia. For Ovariectomy, Incision was made on dorsa-lateral side near lumbar region of animal. After that, ovary was excised and the veins were tied with ligature before removing ovary to prevent blood loss. Then incision was sutured back with ligature. After Bilateral ovariectomy, animals were allowed to rest for 4 weeks. They were then divided into different groups (n=9) based on their body weight. The groups consisted of a no treatment control, PTH as standard and one or two groups of test compounds (short-chain peptides). The treatment was given for the duration of 6 weeks. At the last day of treatment animals were kept overnight in metabolic cages under fasting for the collection of Urine. Next day, blood was collected after 24 hours of last dosing and animals were sacrificed. Changes in biochemical parameters and bone turnover parameters (Increase in serum Calcium and decrease in Phosphate levels, Acid Phosphatase and TRAP) were evaluated in the urine and serum. After sacrificing, intact femur and tibial bones are removed and cleaned from adherent tissues, muscles and tendons; weighed and collected in formal saline (10% formaldehyde solution). Lumbar vertebra (L5) was excised, carefully cleaned and collected in formal saline. Femur, tibia and Lumbar vertebra-5 (L5) were later processed for histomorphometric evaluation (Zhang L., et al., Tohoku J Exp Med., 1998, 186(2), 131-41; Tanizawa T., et al., Toxicol Lett., 1998, 102, 399-403).

CCCC[C@H](NC(=O)[C@H](CC(C)C)NC(=O)[C@H](CCC(N)=O)NC(=O)[C@@H](NC(=O)[C@H](CCC(=O)O)NC(=O)C(C)(C)NC(=O)[C@@H](NC(=O)C(C)(C)N)C(C)C)[C@@H](C)CC)C(=O)N[C@@H](Cc1c[nH]cn1)C(=O)N[C@@H](CCC(N)=O)C(=O)NC(C)(Cc1c(F)cccc1F)C(=O)N[C@@H](C)C(=O)NC(C)(C)C(=O)NC(Cc1ccc(-c2ccc(OC)cc2CC)cc1)C(=O)NC(CCCc1ccccc1)C(N)=O (some centres unmarked) [Seq. ID. 798] (H-[Aib]V[Aib]EIQL[Nle]HQ[ξαMePhe(2,6-F2)]A[Aib][ξBip(2'-Et-4'-OMe)][ξhhPhe]-NH2)
% decrease in serum PO4 Levels (mg/dl) vs control (5 mg/kg): 82% | % increase in serum Ca^2+ Levels (mg/dl) vs control (5 mg/kg): 88%

CCCC[C@H](NC(=O)[C@H](CC(C)C)NC(=O)[C@H](CCC(N)=O)NC(=O)[C@@H](NC(=O)[C@H](CCC(=O)O)NC(=O)C(C)(C)NC(=O)[C@@H](NC(=O)C1(N)CCCC1)C(C)C)[C@@H](C)CC)C(=O)N[C@@H](Cc1c[nH]cn1)C(=O)N[C@@H](CCC(N)=O)C(=O)NC(C)(Cc1c(F)cccc1F)C(=O)N[C@@H](C)C(=O)NC(C)(Cc1c(F)cccc1F)C(=O)NC(Cc1ccc(-c2ccc(OC)cc2CC)cc1)C(=O)NC(CCCc1ccccc1)C(N)=O (some centres unmarked) [Seq. ID. 801] (H-[Ac5c]V[Aib]EIQL[Nle]HQ[ξαMePhe(2,6-F2)]A[ξαMePhe(2,6-F2)][ξBip(2'-Et-4'-OMe)][ξhhPhe]-NH2)
% decrease in serum PO4 Levels (mg/dl) vs control (3 mg/kg): 65% | % increase in serum Ca^2+ Levels (mg/dl) vs control (3 mg/kg): 59%

CCCC[C@H](NC(=O)C(C)(Cc1c(F)cccc1F)NC(=O)[C@H](CCC(N)=O)NC(=O)[C@@H](NC(=O)[C@H](CCC(=O)O)NC(=O)C(C)(C)NC(=O)[C@@H](NC(=O)C(C)(C)N)C(C)C)[C@@H](C)CC)C(=O)N[C@@H](Cc1c[nH]cn1)C(=O)N[C@@H](CCC(N)=O)C(=O)N[C@@H](CCCCNC(=N)N)C(=O)N[C@@H](C)C(=O)NC(C)(C)C(=O)NC(Cc1ccc(-c2ccc(OC)cc2CC)cc1)C(=O)NC(CCCc1ccccc1)C(N)=O (some centres unmarked) [Seq. ID. 814] (H-[Aib]V[Aib]EIQ[ξαMePhe(2,6-F2)][Nle]HQ[hArg]A[Aib][ξBip(2'-Et-4'-OMe)][ξhhPhe]-NH2)
% decrease in serum PO4 Levels (mg/dl) vs control (0.02 mg/kg): 95% | % increase in serum Ca^2+ Levels (mg/dl) vs control (0.02 mg/kg): 99%

CCCC[C@H](NC(=O)C(C)(Cc1c(F)cccc1F)NC(=O)[C@H](CCC(N)=O)NC(=O)[C@@H](NC(=O)[C@H](CCC(=O)O)NC(=O)C(C)(C)NC(=O)[C@@H](NC(=O)C1(N)CCCC1)C(C)C)[C@@H](C)CC)C(=O)N[C@@H](Cc1c[nH]cn1)C(=O)N[C@@H](CCC(N)=O)C(=O)N[C@@H](CCCN)C(=O)N[C@@H](C)C(=O)NC(C)(Cc1c(F)cccc1F)C(=O)NC(Cc1ccc(-c2ccc(OC)cc2CC)cc1)C(=O)NC(CCCc1ccccc1)C(N)=O (some centres unmarked) [Seq. ID. 833] (H-[Ac5c]V[Aib]EIQ[ξαMePhe(2,6-F2)][Nle]HQ[Orn]A[ξαMePhe(2,6-F2)][ξBip(2'-Et-4'-OMe)][ξhhPhe]-NH2)
% decrease in serum PO4 Levels (mg/dl) vs control (0.05 mg/kg): 78% | % increase in serum Ca^2+ Levels (mg/dl) vs control (0.05 mg/kg): 86%

CCCC[C@H](NC(=O)C(C)(Cc1c(F)cccc1F)NC(=O)[C@H](CCC(N)=O)NC(=O)[C@@H](NC(=O)[C@H](CCC(=O)O)NC(=O)C(C)(C)NC(=O)[C@@H](NC(=O)C1(N)CCCC1)C(C)C)[C@@H](C)CC)C(=O)N[C@@H](Cc1c[nH]cn1)C(=O)N[C@@H](CCC(N)=O)C(=O)N[C@@H](CCCNC(N)=O)C(=O)N[C@@H](C)C(=O)NC(C)(C)C(=O)NC(Cc1ccc(-c2ccc(OC)cc2CC)cc1)C(=O)NC(CCCc1ccccc1)C(N)=O (some centres unmarked) [Seq. ID. 847] (H-[Ac5c]V[Aib]EIQ[ξαMePhe(2,6-F2)][Nle]HQ[Cit]A[Aib][ξBip(2'-Et-4'-OMe)][ξhhPhe]-NH2)
% decrease in serum PO4 Levels (mg/dl) vs control (0.5 mg/kg): 79% | % increase in serum Ca^2+ Levels (mg/dl) vs control (0.5 mg/kg): 77%

CCCC[C@H](NC(=O)[C@H](CC(C)C)NC(=O)[C@H](CCC(N)=O)NC(=O)[C@@H](NC(=O)[C@H](CCC(=O)O)NC(=O)C(C)(C)NC(=O)[C@@H](NC(=O)C(C)(C)NC(=O)[C@@H](N)C(C)C)C(C)C)[C@@H](C)CC)C(=O)N[C@@H](Cc1c[nH]cn1)C(=O)N[C@@H](CCC(N)=O)C(=O)N[C@@H](CCCCNC(=N)N)C(=O)N[C@@H](C)C(=O)N[C@@H](CCCCN)C(=O)NC(Cc1ccc(-c2ccc(OC)cc2CC)cc1)C(=O)NC(C)(CCCc1ccccc1)C(N)=O (some centres unmarked) [Seq. ID. 893] (H-V[Aib]V[Aib]EIQL[Nle]HQ[hArg]AK[ξBip(2'-Et-4'-OMe)][ξαMe(hhPhe)]-NH2)
% decrease in serum PO4 Levels (mg/dl) vs control (0.3 mg/kg): 89% | % increase in serum Ca^2+ Levels (mg/dl) vs control (0.3 mg/kg): 108%

CCc1cc(OC)ccc1-c1ccc(CC(C)(NC(=O)[C@H](CCCCNC(=N)N)NC(=O)[C@H](C)NC(=O)[C@H](CCCCNC(=N)N)NC(=O)[C@H](CCC(N)=O)NC(=O)[C@H](Cc2c[nH]cn2)NC(=O)[C@H](CCSC)NC(=O)[C@H](CC(C)C)NC(=O)[C@H](CCC(N)=O)NC(=O)[C@@H](NC(=O)[C@H](CCC(=O)O)NC(=O)C(C)(C)NC(=O)[C@@H](NC(=O)C(C)(C)NC(=O)[C@@H](N)C(C)C)C(C)C)[C@@H](C)CC)C(=O)NC(CCCc2ccccc2)C(N)=O)cc1 (some centres unmarked) [Seq. ID. 902] (H-V[Aib]V[Aib]EIQLMHQ[hArg]A[hArg][ξαMeBip(2'-Et,4'-OMe)][ξhhPhe]-NH2)
% decrease in serum PO4 Levels (mg/dl) vs control (0.8 mg/kg): 98% | % increase in serum Ca^2+ Levels (mg/dl) vs control (0.8 mg/kg): 110%

CCCCC(C)(NC(=O)[C@H](CC(C)C)NC(=O)[C@H](CCC(N)=O)NC(=O)[C@@H](NC(=O)[C@H](CCC(=O)O)NC(=O)C(C)(C)NC(=O)[C@@H](NC(=O)C(C)(C)N)C(C)C)[C@@H](C)CC)C(=O)N[C@@H](Cc1c[nH]cn1)C(=O)N[C@@H](CCC(N)=O)C(=O)N[C@@H](CCCCNC(=N)N)C(=O)N[C@@H](C)C(=O)N[C@@H](CCCCNC(=N)N)C(=O)NC(C)(Cc1ccc(-c2ccc(OC)cc2CC)cc1)C(=O)NC(CCCc1ccccc1)C(N)=O (some centres unmarked) [Seq. ID. 911] (H-[Aib]V[Aib]EIQL[ξαMeNle]HQ[hArg]A[hArg][ξαMeBip(2'-Et,4'-OMe)][ξhhPhe]-NH2)
% decrease in serum PO4 Levels (mg/dl) vs control (10 mg/kg): 97% | % increase in serum Ca^2+ Levels (mg/dl) vs control (10 mg/kg): 121%

CCCCC(C)(NC(=O)[C@H](CC(C)C)NC(=O)[C@H](CCC(N)=O)NC(=O)[C@@H](NC(=O)[C@H](CCC(=O)O)NC(=O)C(C)(C)NC(=O)[C@@H](NC(=O)C1(NC(=O)[C@@H](NC)C(C)C)CCCC1)C(C)C)[C@@H](C)CC)C(=O)N[C@@H](Cc1c[nH]cn1)C(=O)N[C@@H](CCC(N)=O)C(=O)N[C@@H](CCCCNC(=N)N)C(=O)N[C@@H](C)C(=O)N[C@@H](CCCCNC(=N)N)C(=O)NC(Cc1ccc(-c2ccc(OC)cc2CC)cc1)C(=O)NC(C)(CCCc1ccccc1)C(N)=O (some centres unmarked) [Seq. ID. 929] (H-[NMeV][Ac5c]V[Aib]EIQL[ξαMeNle]HQ[hArg]A[hArg][ξBip(2'-Et-4'-OMe)][ξαMe(hhPhe)]-NH2)
% decrease in serum PO4 Levels (mg/dl) vs control (2 mg/kg): 90% | % increase in serum Ca^2+ Levels (mg/dl) vs control (2 mg/kg): 121%

CCCCC(C)(NC(=O)[C@H](CC(C)C)NC(=O)[C@H](CCC(N)=O)NC(=O)[C@@H](NC(=O)[C@H](CCC(=O)O)NC(=O)C(C)(C)NC(=O)[C@@H](NC(=O)C1(NC(=O)[C@@H](NC)C(C)C)CCCC1)C(C)C)[C@@H](C)CC)C(=O)N[C@@H](Cc1c[nH]cn1)C(=O)N[C@@H](CCC(N)=O)C(=O)N[C@@H](CCCCNC(=N)N)C(=O)N[C@@H](C)C(=O)N[C@@H](CCCCNC(=N)N)C(=O)NC(C)(Cc1ccccc1F)C(=O)NC(C)(CCCc1ccccc1)C(N)=O (some centres unmarked) [Seq. ID. 941] (H-[NMeV][Ac5c]V[Aib]EIQL[ξαMeNle]HQ[hArg]A[hArg][ξαMePhe(2-F)][ξαMe(hhPhe)]-NH2)
% decrease in serum PO4 Levels (mg/dl) vs control (0.9 mg/kg): 95% | % increase in serum Ca^2+ Levels (mg/dl) vs control (0.9 mg/kg): 99%
